# Test results taken from patent publication US20240208997A1, “CYCLIC BENZIMIDAZOLE DERIVATIVES AS CGAS INHIBITORS” (Boehringer Ingelheim International GmbH, priority 2022, published 2024).
# Biological target: cGAS (Homo sapiens, UniProt Q8N884)
# Assay: Human cGAS enzyme assay (hcGAS IC50, in vitro), cGAMP formation by RapidFire MS
# Assay type: biochemical
# Design: HumancGAS (amino acid 1-522) with an N-terminal 6×-His-tag and SUMO-tag; 6xHis (N); SUMO (N); made in house; host or cells: E. coli BL21(DE3) pLysS
# Conditions: Table 1; 45 bp dsDNA-activated enzyme
# Procedure: 6.1 Method: Human cGAS Enzyme Assay (hcGAS IC50 (In Vitro))
# Human cGAS enzyme was incubated in the presence of a 45 base pair double stranded DNA to activate the enzyme and GTP and ATP as substrates. Compound activity was determined by measuring the effect of compounds on the formation of the product of the enzyme reaction, cGAMP, which is measured by a mass spectrometry method.
# HumancGAS (amino acid 1-522) with an N-terminal 6×-His-tag and SUMO-tag was expressed in E. coli BL21(DE3) pLysS (Novagen) cells for 16 h at 18° C. Cells were lysed in buffer containing 25 mM Tris (pH 8), 300 mM NaCl, 10 mM imidazole, 10% glycerol, protease inhibitor cocktail (cOmplete™, EDTA-free, Roche) and DNase (5 μg/mL). […] Purified protein was concentrated to 1.7 mg/mL and stored at −80° C.
# Compounds were delivered in 10 mM DMSO solution, serially diluted and transferred to the 384 well assay plate (Greiner #781201) using an Echo acoustic dispenser. Typically, 8 concentrations were used with the highest concentration at 10 μM in the final assay volume followed by ^˜1:5 dilution steps. DMSO concentration was set to 1% in the final assay volume. The 384 well assay plate contained 22 test compounds (column 1-22), and DMSO in column 23 and 24.
# After the compound transfer, 15 μL of the enzyme-DNA-working solution (12 nM cGAS, 0.32 μM 45base pair DNA in assay buffer, 10 mM Tris pH 7.5/10 mM KCl/5 mM MgCl2/1 mM DTT) were added to each well from column 1-23 via a MultiDrop Combi dispenser. In column 24, 15 μl of assay buffer without enzyme/DNA were added as a low control.
# The plates were then pre-incubated for 60 min at room temperature.
# Following that, 10 μL of GTP (ThermoFisher #R0461)-ATP (Promega #V915B) mix in assay buffer were added to the assay plate (columns 1-24, 30 μM final concentration each) using a Multidrop Combi.
# The plates were incubated again for 90 min at room temperature.
# Following the incubation, the reaction was stopped by 80 μL of 0,1% formic acid in assay buffer containing 5 nM cyclic-di-GMP (Sigma #SML1228) used as internal standard for the mass spectrometry. The total volume/well was 105 μL.
# The plates were centrifuged at 4000 rpm, 4° C., for 5 min.
# The RapidFire autosampler was coupled to a binary pump (Agilent 1290) and a Triple Quad 6500 (ABSciex, Toronto, Canada). […] Aspiration time: 250 ms; Load time: 3000 ms; Elute time: 3000 ms; Wash volume: 500 μL.
# The MS was operated in positive ion mode with HESI ion source, with a source temperature of 550 C, curtain gas=35, gas 1=65, and gas 2=80. Unit mass resolution in SRM mode. The following transitions and MS parameters (DP: declustering potential and CE: collision energy) for cGAMP and DicGMP were determined:
# Internal standard: cyclic-di-GMP at 690.1/540, DP=130, CE=30.
# The formation of cGAMP was monitored and evaluated as ratio to cyclic-di-GMP.
# Data Evaluation and Calculation:
# For data evaluation and calculation, the measurement of the low control was set as 0% control and the measurement of the high control was set as 100% control. The IC50 values were calculated using the standard 4 parameter logistic regression formula. Calculation: [y=(a−d)/(1+(x/c)^b)+d], a=low value, d=high value; x=conc M; c=1C50 M; b=slope
# Sequence of cGAS (Q8N884 whole entry): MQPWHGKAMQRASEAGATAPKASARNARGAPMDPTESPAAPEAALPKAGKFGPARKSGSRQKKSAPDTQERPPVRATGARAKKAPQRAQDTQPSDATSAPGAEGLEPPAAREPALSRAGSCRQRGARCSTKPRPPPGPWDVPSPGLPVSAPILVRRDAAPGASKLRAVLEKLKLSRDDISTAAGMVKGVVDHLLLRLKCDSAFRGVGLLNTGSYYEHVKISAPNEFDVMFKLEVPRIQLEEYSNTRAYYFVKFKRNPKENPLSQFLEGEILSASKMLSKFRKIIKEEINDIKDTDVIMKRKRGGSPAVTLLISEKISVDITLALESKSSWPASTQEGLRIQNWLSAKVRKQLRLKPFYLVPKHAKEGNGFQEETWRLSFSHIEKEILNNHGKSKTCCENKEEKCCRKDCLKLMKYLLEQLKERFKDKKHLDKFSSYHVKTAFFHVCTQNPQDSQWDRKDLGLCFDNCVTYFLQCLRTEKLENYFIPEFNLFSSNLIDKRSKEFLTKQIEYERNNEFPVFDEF
row,SMILES,IC50
1,C[C@H]1CN2CC[C@@H]1n1c(nc3cc(F)ccc31)O[C@H]1C[C@@H](C(=O)O)N(C1)c1nc(nc3c1oc1cc(F)ccc13)C(F)(F)CCCCCC2=O [Example 1.15],3.5 nM
2,O=C(O)[C@@H]1C[C@H]2CN1c1nc(nc3c1oc1ccccc13)CCOCCCC(=O)N1CCC(CC1)n1c(nc3ccc(F)cc31)O2 [Example 1.04],4.5 nM
3,O=C(O)[C@@H]1C[C@H]2CN1c1nc(nc3c1oc1ccccc13)OCCCCOC(=O)N1CCC(CC1)n1c(nc3ccccc31)O2 [Example 11.01],10 nM
4,Cc1cccc2c1nc1n2[C@@H]2CCN(C[C@H]2C)C(=O)CCCCCC(F)(F)c2nc(c3oc4ccccc4c3n2)N2C[C@H](C[C@H]2C(=O)O)O1 [Example 1.27],100 nM
5,C[C@H]1CN2CC[C@@H]1n1c(nc3ccc(Cl)cc31)O[C@H]1C[C@@H](C(=O)O)N(C1)c1nc(nc3c1oc1ccccc13)C(F)(F)CCCCCC2=O [Example 1.13],6.1 nM
